{
  "source": "paper PMC12457078",
  "about": "“Inhibition of soluble epoxide hydrolase in endotoxin induced pig lung injury” (Frontiers in Pharmacology, 2025)",
  "test_system": "sEH",
  "test": "oxylipin analysis, epoxide/diol ratios (target engagement)",
  "assay_type": "in vivo, pig",
  "parameters": "14,15-DiHETE: unit not given beside the values; 12,13-DiHOME / 9,10-DiHODE / 11,12-DiHETrE / 14,15-DiHETrE / 10,11-DiHDPE / 19,20-DiHDPE / 13-HODE / 5-HETE / 11-HETE / 12-HETE / 5-HEPE / 9(10)-EpOME / 12(13)-EpOME / EKODE / 11(12)-EpETE: unit not given here",
  "description": "All animals were monitored with pulse oximetry, heart rate, ECG, systemic arterial blood pressure (ABP), pulmonary arterial pressure (PAP), central venous pressure (CVP) temperature, tidal volumes, respiratory rate and end tidal carbon dioxide. At baseline, and at 3 h, 6 h and at the end of the experiment, pulmonary capillary wedge pressure (PCWP) was measured together with arterial and venous blood gas analyses, as well as cardiac output calculations. Routine chemistry, including creatinine, bilirubin, glucose, electrolytes were collected at baseline and at the end of the experiment (Vetscan VS2®, Abaxis, Griesheim, Germany). Blood samples for measurement of AEPU plasma concentrations, as well as oxylipins (i.e., EpETrEs and their DiHETrE corresponding diols as well as related compounds with other polyunsaturated fatty acid precursors), were collected at baseline, 6 h and at the end of the experiment.\nThis meant nine subjects in each group to achieve 90% power of detecting a difference of this size given α = 0.05. Anticipating that not all experiments would reach completion, we used a sample size of 22. The results were analyzed using SPSS Statistics, version 24 (IBM Corp., Armonk, N.Y., United States). Normality was examined with the Shapiro-Wilk test, together with examination of histograms of data. Continuous variables were compared using Student’s t-test or Mann Whitney U test, as appropriate. Categorical variables were compared using Fischer’s exact test. Statistical significance was set at α < 0.05. Oxylipins with at least 80% of observations above limit of detection at both timepoints were included in pairwise comparisons of ratios and fold-change evaluations where observations below limit of detection (LOD) were substituted with 0.5 x LOD.",
  "key": {"[1]": {"conditions": "animal 22, time 6, sample Schwein38"}},
  "note": "Several values for one entry are separate records, joined by “and”; a condition that tells them apart may be missing. Equal values may be shown once.",
  "data": [
    {"smiles": "CCOCCOCCOCCCCCNC(=O)NC12CC3CC(CC(C3)C1)C2", "note": "[sEH-i]", "values": [
      {"measurement": "8(9)-EpETrE", "setting": "[1]", "result": "<LOD"},
      {"measurement": "8,9-DiHETE", "setting": "[1]", "result": "<LOD"},
      {"measurement": "8,9-DiHETrE", "setting": "[1]", "result": 0.0757},
      {"measurement": "8-HETE", "setting": "[1]", "result": 0.0546},
      {"measurement": "9(10)-EpODE", "setting": "[1]", "result": 0.22},
      {"measurement": "9(10)-EpOME", "setting": "[1]", "result": 0.65},
      {"measurement": "9,10,13-TriHOME", "setting": "[1]", "result": 4.88},
      {"measurement": "9,10-DiHODE", "setting": "[1]", "result": 0.22},
      {"measurement": "9,10-DiHOME", "setting": "[1]", "result": 1.64},
      {"measurement": "9,12,13-TriHOME", "setting": "[1]", "result": "<LOD"},
      {"measurement": "9-HETE", "setting": "[1]", "result": "<LOD"},
      {"measurement": "9-HODE", "setting": "[1]", "result": 3.67},
      {"measurement": "9-HOTrE", "setting": "[1]", "result": 0.7165},
      {"measurement": "9-oxo-ODE", "setting": "[1]", "result": "<LOD"},
      {"measurement": "10(11)-EpDPE", "setting": "[1]", "result": "<LOD"},
      {"measurement": "10,11-DiHDPE", "setting": "[1]", "result": 0.03},
      {"measurement": "11(12)-EpETE", "setting": "[1]", "result": 0.07931},
      {"measurement": "11(12)-EpETrE", "setting": "[1]", "result": 0.0369},
      {"measurement": "11,12-DiHETE", "setting": "[1]", "result": 0.0372},
      {"measurement": "11,12-DiHETrE", "setting": "[1]", "result": 0.80},
      {"measurement": "11-HETE", "setting": "[1]", "result": 0.10},
      {"measurement": "12(13)-EpODE", "setting": "[1]", "result": 0.32},
      {"measurement": "12(13)-EpOME", "setting": "[1]", "result": 1.76},
      {"measurement": "12,13-DiHODE", "setting": "[1]", "result": 0.31},
      {"measurement": "12,13-DiHOME", "setting": "[1]", "result": 3.15},
      {"measurement": "12-HEPE", "setting": "[1]", "result": 0.0345},
      {"measurement": "12-HETE", "setting": "[1]", "result": 0.2294},
      {"measurement": "12-oxo-ETE", "setting": "[1]", "result": 2.84},
      {"measurement": "13(14)-EpDPE", "setting": "[1]", "result": "<LOD"},
      {"measurement": "13,14-DiHDPE", "setting": "[1]", "result": 0.13},
      {"measurement": "13-HODE", "setting": "[1]", "result": 19.79},
      {"measurement": "13-HOTrE", "setting": "[1]", "result": 1.01},
      {"measurement": "13-oxo-ODE", "setting": "[1]", "result": "<LOD"},
      {"measurement": "14(15)-EpETE", "setting": "[1]", "result": "<LOD"},
      {"measurement": "14(15)-EpETrE", "setting": "[1]", "result": 0.09},
      {"measurement": "14,15-DiHETrE", "setting": "[1]", "result": 1.47},
      {"measurement": "15(16)-EpODE", "setting": "[1]", "result": 4.31},
      {"measurement": "15,16-DiHODE", "setting": "[1]", "result": 14.18},
      {"measurement": "15-HEPE", "setting": "[1]", "result": "<LOD"},
      {"measurement": "15-HETE", "setting": "[1]", "result": 0.27},
      {"measurement": "15-HETrE", "setting": "[1]", "result": 0.12},
      {"measurement": "15-oxo-ETE", "setting": "[1]", "result": 0.03},
      {"measurement": "16(17)-EpDPE", "setting": "[1]", "result": "<LOD"},
      {"measurement": "16,17-DiHDPE", "setting": "[1]", "result": 0.28},
      {"measurement": "17(18)-EpETE", "setting": "[1]", "result": "<LOD"},
      {"measurement": "17,18-DiHETE", "setting": "[1]", "result": 1.29},
      {"measurement": "17-HDoHE", "setting": "[1]", "result": "<LOD"},
      {"measurement": "19(20)-EpDPE", "setting": "[1]", "result": "<LOD"},
      {"measurement": "19,20-DiHDPE", "setting": "[1]", "result": 1.67},
      {"measurement": "20-HETE", "setting": "[1]", "result": 0.10},
      {"measurement": "EKODE", "setting": "[1]", "result": 0.30},
      {"measurement": "LTB4", "setting": "[1]", "result": "<LOD"},
      {"measurement": "PGD2", "setting": "[1]", "result": "<LOD"},
      {"measurement": "PGE2", "setting": "[1]", "result": "<LOD"},
      {"measurement": "PGF2a", "setting": "[1]", "result": 0.18},
      {"measurement": "Resolvin D1", "setting": "[1]", "result": "<LOD"},
      {"measurement": "Resolvin D2", "setting": "[1]", "result": "<LOD"},
      {"measurement": "TXB2", "setting": "[1]", "result": 0.45},
      {"measurement": "14,15-DiHETE", "setting": "animal 22, time 6, sample Schwein38, high blanks", "result": 0.2142},
      {"measurement": "5(6)-EpETrE", "setting": "time 0, individual pigs", "result": "<LOD"},
      {"measurement": "5,6-DiHETrE", "setting": "time 0, individual pigs", "result": "<LOD"},
      {"measurement": "5-HEPE", "setting": "time 0, individual pigs", "result": "0.12 and 0.10 and 0.0352 and 0.0647 and 0.04"},
      {"measurement": "5-HETE", "setting": "time 0, individual pigs", "result": "0.3505 and 0.4442 and 0.2569 and 0.292 and 0.2018"},
      {"measurement": "5-oxo-ETE", "setting": "time 0, individual pigs", "result": "<LOD and 0.13 and 0.12"},
      {"measurement": "7(8)-EpDPE", "setting": "time 0, individual pigs", "result": "<LOD"},
      {"measurement": "7,8-DiHDPE", "setting": "time 0, individual pigs", "result": "<LOD"},
      {"measurement": "8(9)-EpETE", "setting": "time 0, individual pigs", "result": "<LOD"},
      {"measurement": "8(9)-EpETrE", "setting": "time 0, individual pigs", "result": "<LOD"},
      {"measurement": "8,9-DiHETE", "setting": "time 0, individual pigs", "result": "<LOD"},
      {"measurement": "8,9-DiHETrE", "setting": "time 0, individual pigs", "result": "0.05 and 0.0422 and <LOD and 0.06"},
      {"measurement": "8-HETE", "setting": "time 0, individual pigs", "result": "0.06 and 0.08 and 0.053 and 0.0429"},
      {"measurement": "9(10)-EpODE", "setting": "time 0, individual pigs", "result": "0.38 and 0.25 and <LOD"},
      {"measurement": "9(10)-EpOME", "setting": "time 0, individual pigs", "result": "0.98 and 0.51 and 0.65 and 0.99 and 0.62"},
      {"measurement": "9,10-DiHODE", "setting": "time 0, individual pigs", "result": "0.22 and 0.21 and 0.10 and 0.16 and 0.12"},
      {"measurement": "9,10-DiHOME", "setting": "time 0, individual pigs", "result": "1.61 and 1.57 and 0.78 and 1.46 and 0.91"},
      {"measurement": "9-HETE", "setting": "time 0, individual pigs", "result": "<LOD"},
      {"measurement": "9-HODE", "setting": "time 0, individual pigs", "result": "8.25 and 8.10 and 3.23 and 6.40 and 4.24"},
      {"measurement": "9-HOTrE", "setting": "time 0, individual pigs", "result": "1.27 and 1.28 and 0.79 and 0.81 and 0.6856"},
      {"measurement": "9-oxo-ODE", "setting": "time 0, individual pigs", "result": "<LOD"},
      {"measurement": "10(11)-EpDPE", "setting": "time 0, individual pigs", "result": "<LOD"},
      {"measurement": "10,11-DiHDPE", "setting": "time 0, individual pigs", "result": "<LOD"},
      {"measurement": "11(12)-EpETE", "setting": "time 0, individual pigs", "result": "0.1253 and 0.08781 and 0.1311 and 0.1265 and 0.1028"},
      {"measurement": "11(12)-EpETrE", "setting": "time 0, individual pigs", "result": "<LOD and 0.02 and 0.0347 and 0.03"},
      {"measurement": "11,12-DiHETE", "setting": "time 0, individual pigs", "result": "<LOD and 0.0219"},
      {"measurement": "11,12-DiHETrE", "setting": "time 0, individual pigs", "result": "0.32 and 0.22 and 0.18 and 0.46 and 0.23"},
      {"measurement": "11-HETE", "setting": "time 0, individual pigs", "result": "0.13 and 0.12 and 0.05 and 0.0453"},
      {"measurement": "12(13)-EpODE", "setting": "time 0, individual pigs", "result": "0.71 and 0.48 and <LOD and 0.61 and 0.44"},
      {"measurement": "12(13)-EpOME", "setting": "time 0, individual pigs", "result": "3.24 and 1.63 and 2.31 and 2.28 and 1.75"},
      {"measurement": "12,13-DiHODE", "setting": "time 0, individual pigs", "result": "0.45 and 0.48 and 0.25 and 0.29"},
      {"measurement": "12,13-DiHOME", "setting": "time 0, individual pigs", "result": "6.90 and 6.98 and 3.85 and 4.66 and 3.09"},
      {"measurement": "12-HEPE", "setting": "time 0, individual pigs", "result": "0.04 and <LOD and 0.0173"},
      {"measurement": "12-HETE", "setting": "time 0, individual pigs", "result": "0.1828 and 0.38 and 0.09618 and 0.1256 and 0.03983"},
      {"measurement": "12-oxo-ETE", "setting": "time 0, individual pigs", "result": "<LOD"},
      {"measurement": "13(14)-EpDPE", "setting": "time 0, individual pigs", "result": "<LOD"},
      {"measurement": "13,14-DiHDPE", "setting": "time 0, individual pigs", "result": "0.05 and 0.018 and <LOD and 0.06 and 0.0275"},
      {"measurement": "13-HODE", "setting": "time 0, individual pigs", "result": "29.61 and 29.96 and 13.26 and 18.81 and 12.94"}
    ]}
  ]
}
